Columns and labels:
[1] = biological target: T1, CysLT1 receptor (Homo sapiens, UniProt Q9Y271); assay: LTD4-induced calcium flux (calcium mobilization, FLIPR) in CysLT1 receptor transfected HEK293T cells; assay type: cell-based; conditions: antagonist dose-response curve, read-out: IC50 of blocking LTD4-induced calcium flux, CysLT1 receptor
T1 construct: expressed in transfected cells; host or cells: HEK293T
T1 sequence (Q9Y271 1-337): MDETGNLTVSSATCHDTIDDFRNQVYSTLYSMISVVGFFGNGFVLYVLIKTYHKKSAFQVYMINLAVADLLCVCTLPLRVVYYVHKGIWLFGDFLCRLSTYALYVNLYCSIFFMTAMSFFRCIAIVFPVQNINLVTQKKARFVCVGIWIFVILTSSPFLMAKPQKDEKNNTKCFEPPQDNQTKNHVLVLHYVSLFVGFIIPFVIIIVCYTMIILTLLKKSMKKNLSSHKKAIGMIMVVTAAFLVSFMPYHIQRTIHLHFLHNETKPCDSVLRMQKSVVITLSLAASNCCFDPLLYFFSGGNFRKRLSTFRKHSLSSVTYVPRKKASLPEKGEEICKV
Procedure: (§1) Compounds may be screened for effects on LTD4 induced calcium mobilization in cells transfected with CysLT2 receptor, according to the following calcium mobilization assay.
(§2) Human embryonic kidney (HEK293T) cells transiently transfected with the CysLT2 receptor using LipofectAMINE™2000 reagent (Life Technologies) or Chinese hamster ovary (CHO-NFAT) cells stably transfected with the CysLT2 type receptor are plated into Poly-D-Lysine treated black-wall microplates (Biocoat™) at 5×10^4 cells per well. Cells are maintained for approximately 24 hours at 37° C. and 5% CO2. After 24 hours, cells are loaded with Fluo4 calcium indicator dye (Molecular Probes) in the presence of 2.5 mM probenecid for one hour. After washing, the cells are treated with agonist, (10 nM LTD4, BioMol), and maximum fluorescence measured in a Molecular Devices Fluorometric Imaging Plate Reader (FLIPR). Compounds screened for antagonism are added five minutes prior to addition of agonist.
Compounds of interest from the CysLT2 receptor screen may also be assayed in a CysLT1 receptor counter screen. Compounds of interest may be assayed using the same protocol described above in cells transfected with the CysLT1 receptor.
(§3) Agonist and Standard Antagonist Functional Characterization on Human CysLT1 and CysLT2 Receptors

[2] = biological target: T2, CysLT2 receptor (Homo sapiens, UniProt Q9NS75); assay: LTD4-induced calcium flux (calcium mobilization, FLIPR) in CysLT2 receptor-transfected cells; assay type: cell-based; conditions: antagonist dose-response curve, read-out: IC50 of blocking LTD4-induced calcium flux, CysLT2 receptor
T2 construct: expressed in transfected cells
T2 sequence (Q9NS75 1-346): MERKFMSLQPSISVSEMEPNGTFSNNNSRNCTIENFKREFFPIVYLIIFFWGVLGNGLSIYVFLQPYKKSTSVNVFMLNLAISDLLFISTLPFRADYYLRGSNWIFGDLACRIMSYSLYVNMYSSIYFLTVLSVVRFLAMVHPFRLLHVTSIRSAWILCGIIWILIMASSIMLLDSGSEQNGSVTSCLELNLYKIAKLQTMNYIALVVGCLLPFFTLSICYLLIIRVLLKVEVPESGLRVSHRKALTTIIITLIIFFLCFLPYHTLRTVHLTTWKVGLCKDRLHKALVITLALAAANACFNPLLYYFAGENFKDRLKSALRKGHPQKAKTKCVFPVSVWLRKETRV
Procedure: as §1, §2, §3

IC50 [1]: < 10 µM | IC50 [2]: < 10 µM | melting point: 88 to 91 °C
Structure (SMILES): CCCCCCCCCc1ccc(C(Sc2cccc(NC(=O)CC(=O)O)c2)C(=O)CCCC(=O)O)cc1 (stereo not drawn) [Compound (I), 6-({3-[(carboxyacetyl)amino]phenyl}thio)-6-(4-nonylphenyl)-5-oxohexanoic acid]

From patent US20070197585A1, “Use of cysteinyl leukotriene 2 receptor antagonists” (priority 2004, published 2007)
